≈ marks a conversion by molar mass, not a printed value. Calls of active or inactive are those of the source. No cut-off for these calls is given here.

We go through 17 molecules from ChEMBL document CHEMBL4406811, “Optimization and Mechanistic Characterization of Pyridopyrimidine Inhibitors of Bacterial Biotin Carboxylase” (J Med Chem, 2019).

For test [1], the target named is Biotin carboxylase (Pseudomonas aeruginosa (strain ATCC 15692 / DSM 22644 / CIP 104116 / JCM14847 / LMG 12228 / 1C / PRS 101 / PAO1), UniProt P37798). As to the kind of experiment: Inhibition of recombinant N-terminal His-tagged Pseudomonas aeruginosa PAO1 biotin carboxylase expressed in Escherichia coli Rosetta(DE3) pLysS cells using biotin as substrate by spectroscopic analysis.

Test [2] deals with Escherichia coli. As to the kind of experiment: Antibacterial activity against Escherichia coli DM4100 harboring deltatolC mutant measured after 18 to 20 hrs by broth microdilution method. The test is classed as functional. (Dilution methods test growth across graded concentrations, often in twofold steps.)
The subject of test [3] is Escherichia coli. As to the kind of experiment: Antibacterial activity against Escherichia coli DM4100 harboring deltatolC mutant measured after 18 to 20 hrs in presence of permeabilizing agent PMBN by broth microdilution method. The test is classed as functional.
The subject of test [4] is Pseudomonas aeruginosa. As to the kind of experiment: Antibacterial activity against Pseudomonas aeruginosa PAO1 PAM1262 harboring MexAB-OprM/MexCD-OprJ/MexEF-OprN deletion mutant measured after 18 to 20 hrs by broth microdilution method. The test is classed as functional.
The subject of test [5] is Escherichia coli. As to the kind of experiment: Induction of cytological changes in Escherichia coli ATCC 25922 assessed as formation of short chains of three to eight cells at 150 ug/ml measured after 2 hrs by FM 4-64/DAPI staining based microscopic analysis. The test is classed as functional, organism-based.

Chain of Biotin carboxylase (P37798 whole entry): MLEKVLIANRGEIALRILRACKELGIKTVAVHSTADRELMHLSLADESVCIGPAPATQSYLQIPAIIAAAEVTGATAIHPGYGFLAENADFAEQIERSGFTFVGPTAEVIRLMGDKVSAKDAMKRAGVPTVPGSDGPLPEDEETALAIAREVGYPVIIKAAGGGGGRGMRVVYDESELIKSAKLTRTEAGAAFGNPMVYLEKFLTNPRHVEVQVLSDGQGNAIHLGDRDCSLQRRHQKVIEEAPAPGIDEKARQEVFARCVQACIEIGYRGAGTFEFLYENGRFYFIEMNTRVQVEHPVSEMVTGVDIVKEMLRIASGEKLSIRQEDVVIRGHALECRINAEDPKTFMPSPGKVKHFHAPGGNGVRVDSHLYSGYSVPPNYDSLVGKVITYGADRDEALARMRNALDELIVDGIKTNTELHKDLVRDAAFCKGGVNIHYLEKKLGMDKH

In the case of `Nc1ncc2cc(-c3c(Cl)cccc3Cl)c(N3C[C@@H]4[C@@H](N)[C@@H]4C3)nc2n1`, in test [1], the IC50 was 33 nM. Moreover, the results for the MIC in test [2] and in test [3] were 0.12 µg/mL (≈ 0.31 µM) and 0.06 µg/mL, respectively.

In the case of `Nc1ncc2cc(-c3c(Cl)cccc3Cl)c(N)nc2n1`, in test [1], the IC50 was found to be 320 nM. Moreover, the MIC turned out to be 0.5 µg/mL (≈ 1.63 µM) in test [2], 0.25 µg/mL in test [3] and 16 µg/mL (≈ 52.3 µM) in test [4].

On to `COc1ccc(-c2cccc(Cl)c2-c2cc3cnc(N)nc3nc2N)cn1`, for which the IC50 in test [1] was 32 nM. Moreover, the MIC in test [2] amounted to 0.06 µg/mL (≈ 0.158 µM); in test [3], 0.03 µg/mL.

With `NCC1CCN(c2nc3nc(N)ncc3cc2-c2c(Cl)cccc2Cl)CC1`, the IC50 in test [1] was found to be 320 nM. For the same molecule, the MIC in test [2] worked out at 1 µg/mL (≈ 2.48 µM); in test [3], 0.5 µg/mL; in test [4], 64 µg/mL (≈ 159 µM).

As for `NCC1CCN(c2nc3nc(N)ncc3cc2-c2c(Cl)cccc2Cl)C1` (centres undefined), the IC50 in test [1] was determined as 64 nM. Moreover, the minimum inhibitory concentration (MIC) came to 0.5 µg/mL (≈ 1.28 µM) in test [2] and 0.12 µg/mL in test [3]. Besides, the result in test [5] was Active.

As for `Nc1ncc2cc(-c3ccccc3-c3cccnc3)c(N)nc2n1`, the IC50 in test [1] came to 130 nM. Further, the MIC turned out to be 2 µg/mL (≈ 6.36 µM) in test [2], 0.5 µg/mL in test [3] and 16 µg/mL (≈ 50.9 µM) in test [4].

With `Nc1ncc2cc(-c3c(Cl)cccc3-c3ccncc3)c(N3C[C@@H]4[C@@H](N)[C@@H]4C3)nc2n1`, in test [1], the IC50 was no more than 15 nM. In addition, the MIC in test [2] turned out to be 0.03 µg/mL (≈ 0.0698 µM); in test [3], 0.015 µg/mL; in test [4], 2 µg/mL (≈ 4.65 µM).

Regarding `Cc1ncc(-c2cccc(Cl)c2-c2cc3cnc(N)nc3nc2N2C[C@@H]3[C@@H](N)[C@@H]3C2)s1`, the IC50 in test [1] is no more than 15 nM. Also, the MIC was determined as 0.008 µg/mL (≈ 0.0178 µM) in test [2], 0.004 µg/mL in test [3] and 1 µg/mL (≈ 2.22 µM) in test [4].

For `Nc1ncc2cc(-c3c(Cl)cccc3Cl)c(N3CCC(CO)C3)nc2n1` (centres undefined), in test [1], the IC50 was determined as 140 nM. The MIC in test [2] turned out to be 0.25 µg/mL (≈ 0.641 µM); in test [3] it was 0.12 µg/mL.

Consider `NCC1(O)CCN(c2nc3nc(N)ncc3cc2-c2c(Cl)cccc2Cl)C1` (centres undefined), for which the IC50 in test [1] came out at 83 nM. The results for the MIC in test [2], in test [3] and in test [4] were 1 µg/mL (≈ 2.47 µM), 0.25 µg/mL and greater than 64 µg/mL, respectively.

With `Nc1ncc2cc(-c3c(Cl)cccc3Cl)c(N3CCC(N)(CO)C3)nc2n1` (centres undefined), the IC50 in test [1] worked out at 190 nM. The MIC is 1 µg/mL (≈ 2.47 µM) in test [2] and 0.25 µg/mL in test [3].

In the case of `Nc1ncc2cc(-c3c(Cl)cccc3-c3cccnc3)c(N)nc2n1`, in test [1], the IC50 came to 36 nM. Also, the MIC in test [2] was 0.12 µg/mL (≈ 0.344 µM); in test [3] it was 0.06 µg/mL; in test [4] it was 4 µg/mL (≈ 11.5 µM).

As for `Nc1ncc2cc(-c3ccccc3-c3ccccc3)c(N)nc2n1`, the IC50 in test [1] is 79 nM. Moreover, the values for the MIC in test [2] and in test [3] were 0.5 µg/mL (≈ 1.6 µM) and 0.25 µg/mL, respectively.

Turning to `NC(=O)C1CCN(c2nc3nc(N)ncc3cc2-c2c(Cl)cccc2Cl)C1` (centres undefined), in test [1], the concentration for half-maximal inhibition (IC50) stood at 170 nM. Moreover, the MIC in test [2] was found to be 0.5 µg/mL (≈ 1.24 µM); in test [3], 0.12 µg/mL.

Regarding `CC(C)COc1cccc(Cl)c1-c1cc2cnc(N)nc2nc1N`, the IC50 in test [1] came out at 93 nM. In addition, the values for the MIC in test [2] and in test [3] were 0.25 µg/mL (≈ 0.727 µM) and no more than 0.06 µg/mL, respectively.

As to `COc1ncc(-c2cccc(Cl)c2-c2cc3cnc(N)nc3nc2N2C[C@@H]3[C@@H](N)[C@@H]3C2)cc1F`, in test [1], the IC50 is no more than 15 nM. The MIC in test [2] was determined as 0.015 µg/mL (≈ 0.0314 µM); in test [3], 0.008 µg/mL; in test [4], 2 µg/mL (≈ 4.18 µM).

For `NCC1(F)CCN(c2nc3nc(N)ncc3cc2-c2c(Cl)cccc2Cl)C1` (centres undefined), the IC50 in test [1] was determined as 440 nM. For the same molecule, the MIC in test [3] stood at 1 µg/mL.

A word on the IC50: it is the concentration that inhibits the measured activity by half. A word on the MIC: it is the least concentration at which growth counts as inhibited.
